According to patent US10947275B2, “Caged cell penetrating peptide-polymer conjugates for diagnostic and therapeutic applications” (Ben-Gurion University of the Negev Research and Development …, priority 2010, dated 2021):

Experiments:
[1] = tested on: B16 cells; assay: Caging of CPP activity via reversible electrostatic interactions with polyanions, flow cytometry; assay type: cell-based; conditions: for mean fluorescence intensity of HPMA-CPP-FITC after pre-treatment with polyanion (masking of CPP activity): polyanion mixed with HPMA-CPP-FITC for 10 min, versus conjugate alone
Procedure: FIG. 7A-FIG. 7D depict FACS analysis results of B-16 cells incubated with HPMA-CPP-FITC conjugate mixed with different polyanions (Hep, FI, PGA, HA, P-GG, LMWH, Amb) for 10 min, and then added to B16-cell monolayers. Control cells were treated with HPMA-CPP-FITC conjugate only. FIG. 7A depicts results of B-16 cells incubated with HPMA-CPP-FITC conjugate mixed with Hep or FI. FIG. 7B depicts results of B-16 cells incubated with HPMA-CPP-FITC conjugate mixed with PGA or HA. FIG. 7C depicts results of B-16 cells incubated with HPMA-CPP-FITC conjugate mixed with P-GG or LMWH. FIG. 7D depicts results of B-16 cells incubated with HPMA-CPP-FITC conjugate mixed with Amb.
FIG. 8A-FIG. 8D depict FACS analysis results of stability testing of HPMA-CPP-FITC polyanion complexes incubated with B-16 cells at different time points. FIG. 8A depicts results of B-16 cells incubated with a complex of HPMA-CPP-FITC and the polyanion Hep. FIG. 8B depicts results of B-16 cells incubated with a complex of HPMA-CPP-FITC and the polyanion FI. FIG. 8C depicts results of B-16 cells incubated with a complex of HPMA-CPP-FITC and the polyanion LMWH. FIG. 8D depicts results of B-16 cells incubated with a complex of HPMA-CPP-FITC and the polyanion Amb.
FIG. 9A-FIG. 9D depict the reversible masking of CPP activity by polyanion complexes via the addition of protamine. FIG. 9A depicts the reversible masking of CCP activity by polyanion complexes comprising the polyanion fucoidan via the addition or protamine. FIG. 9B depicts the reversible masking of CCP activity by polyanion complexes comprising the polyanion LMWH via the addition or protamine. FIG. 9C depicts the reversible masking of CCP activity by polyanion complexes comprising the polyanion Heparin via the addition or protamine. FIG. 9D depicts the reversible masking of CCP activity by polyanion complexes comprising the polyanion P-GG-OH via the addition or protamine.
FIG. 10 depicts FACS analysis results of polyanion release from HPMA-CPP-FITC complexes by protamine was at the following order: LMWH>P-GG100%>Fl>Hep.
HPMA-CPP-FITC conjugate was mixed with various polyanions such as Polyglutamic acid (PGA); Fucoidan (FI); Heparin sulfate (Hep) Hyaluronic acid (HA); Low molecular weight heparin (LMWH), Amberlite IR120 (Amb) or Polyglycylglycine (P-GG) at a weight ratio of 3:1 or 5:1 in PBS. The solutions were left for 10 min at room temperature to allow HPMA-CPP-FITC-polyanion complex formation, and then added to B16 cell monolayers in growth medium The reversibility of masking the CPP activity in complexes was assessed following the addition of the counter polycation, protamine to the incubation medium. B16 cells were treated with HPMA-CPP-FITC-polyanion complexes for 10 min, and then the counter polycation protamine (4.7 KDa, 10-50 μg/ml, at the same weight ratio of HPMA conjugate) was added to the cells. Control cells were treated with HPMA-CPP-FITC-polyanion complexes without protamin. After 1 h, the cells were washed with PBS, harvested with trypsin and the cell associated fluorescence was analyzed by flow cytometry.
HPMA-CPP-FITC conjugate was mixed with different polyanions (Hep, FI, PGA, HA, P-GG, LMWH, Amb) and then added to B16-cell monolayers and compared to control cells treated with HPMA-CPP-FITC conjugate alone (FIGS. 7A-7D).
The masking of CPP activity by the polyanion complexes was readily reversible following the addition of the polycation, protamine (4.7 KD) (FIGS. 9A-9D). Greater intensity is readily seen in protamine treated (black lines) versus untreated (gray lines) samples.
The efficiency of polyanion release from HPMA-CPP-FITC complexes by protamine was at the following order: LMWH>P-GG100%>FI>Hep (corresponding to outermost versus innermost graphs) (FIG. 10).

[2] = Uncaging kinetics of cCPP under UV illumination, HPLC; assay type: physicochemical; conditions: cCPP 200 μM, 8 minutes UV illumination (700 μW/cm2; λ=365 nm), HPLC-UV 230 nm
Procedure: FIG. 2 depicts the uncaging kinetics of cCPP as a function of light illumination time (365 nm) as determined with HPLC.
Uncaging kinetics of cCPP. cCPP (200 μM) was dissolved in 100 μL MOPS buffer at pH=7.4 and exposed to UV light illumination (UV lamp 6 W; =365 nm). Aliquots (30 μL) were removed at various time points, immediately kept frozen, in dark until analyzed by HPLC. The molar fraction of cCPP was calculated from its HPLC peak area.
CPP with 3 Mtt-protected Lys, Ac-KRRMK^MttWK^MttK^Mtt (KRRMKWKXK SEQ ID NO: 6) was synthesized on a solid phase via Fmoc chemistry on a MBHA Resin. CPP was then modified to include 3 photolabile protecting groups on Lys side chains to give the caged CPP (cCPP), Ac-KRRMK^NvocWK^NvocK^Nvoc. The identity and purity (>90%) were determined by HPLC and MALDI-TOF mass spectrometer. In order to study the uncaging kinetics of the peptide, a solution of cCPP (200 μM) was exposed to UV light illumination (700 μW/cm2; λ=365 nm). Aliquots were removed at various time points, and then evaluated by high performance liquid chromatography with UV detection (HPLC-UV) at 230 nm. The molar fraction of cCPP was calculated from its HPLC peak (FIG. 2). 8 minutes of illumination were sufficient to attain >80% of uncaged CPP, and thus further experiments were therefore undertaken with 8-10 min of light illumination. […]

[3] = tested on: PC-3 cells; assay: Light-mediated cytotoxicity, MTT assay, illumination time and dose dependence; assay type: cell-based; conditions: 80 μM dose (or equivalent dose of M-(cCPP)-KLAK), 15 min of light illumination
Procedure: FIG. 6A depicts illumination time-dependence and dose-dependence of the viability of PC-3 cells incubated with 80 μM (solid blue), 40 μM (dashed blue), 20 μM (dots blue) M-(cCPP)-KLAK (KLAK equiv), 80 μM KLAK (solid green), and 80 μM M-(cCPP) (solid red), as determined by MIT assay. The results presented are the average of 3 independent experiments, in duplicates. Untreated control cells corresponded to 100% viability. FIG. 6B depicts light-induced cell cytotoxicity of polymer-KLAK conjugates and free KLAK against various cell-types including A431 cells (top left graph), PC-3 cells (top right graph), 3LL cells (bottom left graph) and SW480 cells (bottom right graph). Cells were incubated with 60 μM KLAK equivalent M-(cCPP)-KLAK (dark column), M-(cCPP) (gray column) or 60 μM KLAK (white column) and were illuminated immediately with UV light (365 nm) for 8 minutes followed by 2 hours incubation at 37° C. Cell viability was analyzed by MIT assay.
The cytotoxicity of M-cCPP-KLAK, M-cCPP and o(KIAKLAK) (SEQ ID NO: 5)2, was assessed using a modified 3-(4,5-dimethylthiazol-2-yl)-2,5-diphenyltetrazolinium bromide (MTT). All concentrations of KLAK-HPMA copolymers used for these experiments are expressed in KLAK equivalents. All solutions were sterilized by filtering through a 0.2-μm membrane filter. […] The absorbance of each sample was measured at 570 nm. […]

uncaged CPP attained [2] [%] | Substance | mean fluorescence intensity of HPMA-CPP-FITC after pre-treatment with polyanion (masking of CPP activity) [1] | order of efficiency of polyanion release from HPMA-CPP-FITC complexes by protamine [1] | toxicity towards PC-3 cells [3]
 | Fucoidan [FI] | significantly reduced | LMWH>P-GG100%>FI>Hep | 
> 80 | Ac-KRRMK^NvocWK^NvocK^Nvoc [cCPP] |  |  | 
 | Low molecular weight heparin [LMWH] | significantly reduced | LMWH>P-GG100%>FI>Hep | 
 | Heparin sulfate | significantly reduced | LMWH>P-GG100%>FI>Hep | 
 | Levulinic acid-D(KLAKLAK)2 |  |  | no significant toxicity
